Common to all, as to assay: growth of human tumour cells (NCI), 48 h
Assay [1] concerns HT29 colon.
Assay [2] deals with OVCAR-3 ovarian.
In assay [3] the test system is HCT-116 colon.
Assay [4] deals with SK-OV-3 ovarian.
Assay [5] concerns KM20L2 colon.
The test system of assay [6] is SF-295 CNS.
The subject of assay [7] is SK-MEL-5 melanoma.
Assay [8] concerns SR leukemia.
Assay [9] concerns PC-3 prostate.
In assay [10] the test system is DU-145 prostate.

Molecules are shown by their SMILES. Several values for one entry are separate records, joined by “and”; a condition that tells them apart may be missing. Identical values can stand only once.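 Compound exposure: 48 hours, 5 concentrations, 96-well plates. At the GI50, growth is halved. At the TGI there is no net growth.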

Turning to `Cc1ccc(NC(=O)CC/C(CC(=O)C(C)(C)C)=N/NC(=O)c2cc3ccccc3cc2O)cc1C`, the TGI in [1], in assay [2], in assay [3], in [4], in [5] and in assay [6] was > 100 µM throughout.

On to `CC(C)C(NCc1c2ccccc2[n+](C)c2ccccc12)C(=O)O` (configuration not stated), for which the TGI stood at 10.3 µM in assay [1]; 20.8 µM in assay [7]; 16.9 µM in assay [2]; 13.6 µM in [3]; 31 µM in assay [4]; 7.33 µM in assay [5]. This molecule also yielded a TGI in [6] of 20.5 µM.

Turning to `[C-]#[O+].[Cl][Sn]([Cl])[Cl].[Cl][Sn]([Cl])[Cl].[Pt].c1cnc2c(c1)ccc1cccnc12`, the TGI is > 100 µM in assay [1]; 13.4 µM in assay [7]; > 69.8 µM in assay [2]; > 24.6 µM in assay [3]; 27.8 µM in assay [4]; 4.54 µM in assay [5]. Besides, the TGI in assay [6] is > 36.5 µM. Moreover, in assay [5], the GI50 was 1.97 µM.

For `Cc1cc(-c2ccc(N=Nc3ccc4c(S(=O)(=O)O)cc(S(=O)(=O)O)c(N)c4c3O)c(C)c2)ccc1N=Nc1ccc2c(S(=O)(=O)O)cc(S(=O)(=O)O)c(N)c2c1O`, the TGI in assay [1], in assay [7], in [2], in assay [3], in assay [4] and in [5] was > 100 µM each time. In addition, the TGI in assay [6] is > 100 µM.

For the molecule `CC1(C)CCC[C@@]2(C)C1CC[C@@]1(CO)O[C@H](C3=CC(=O)OC3O)C[C@H]12` (some centres not stated), the TGI in assay [1] stood at 30.6 µM; in [7], 20.9 µM; in assay [8], 7.58 µM; in [2] it was 29.4 µM; in assay [3], 18.6 µM; in assay [4], 72.6 µM. In addition, the TGI in assay [9] came to 29.5 µM; in assay [6], 50.5 µM; in assay [10] it was 17.8 µM.

For the molecule `Cn1c2c(c3c(=O)[nH]ncc31)Cc1ccccc1-2`, the TGI was > 100 µM in [1]; 34.9 µM in [7]; 28.4 µM in assay [8]; 41.2 µM in assay [2]; 60.8 µM in assay [3]; > 100 µM in assay [4]. For the same molecule, the figures for the TGI in assay [9], in assay [6] and in [10] were > 100 µM, 25.7 µM and 50.7 µM, respectively.

`COC(=O)C(Cc1ccccc1)NC(=O)C(CNC(=O)OCc1ccccc1)C(=O)OCc1ccccc1` (configuration not stated): the TGI in [1] is > 100 µM; in assay [7], > 100 µM and 31.4 µM; in assay [8] it was > 100 µM; in assay [2], > 100 µM; in assay [3] it was > 100 µM; in assay [4], > 100 µM. Further, the TGI in assay [9] is > 100 µM; in [6] it was > 100 µM and 80.2 µM; in assay [10], > 100 µM. Moreover, the GI50 in [7] was > 100 µM and 14.5 µM; in [6], > 100 µM and 28.6 µM.

On to `COCc1cc2c(s1)C(=O)C1=C(C2=O)C2(C=C(Br)C(=O)C(Br)=C2)CCN1`, for which the TGI was 12.9 µM in assay [1]; 5.62 µM in assay [7]; 8.35 µM in [8]; 11.8 µM in assay [2]; 3.11 µM in assay [3]; 30.7 µM in assay [4]. The values for the TGI in assay [9], in assay [6] and in assay [10] were 12.1 µM, 19.3 µM and 29.8 µM, respectively.

Turning to `COc1ccccc1N=Nc1c(O)ccc2ccccc12`, the TGI in assay [1] is > 100 µM; in assay [7] it was > 89.9 µM and 59.2 µM; in [8], > 100 µM; in assay [2] it was > 100 µM; in assay [3] it was > 100 µM; in [4], 29.5 µM and 38.3 µM. Moreover, the TGI was > 100 µM in assay [9]; 48.3 µM and 78.2 µM in [6]; > 100 µM in [10].

On to `COC1=C(OC)C(=O)C(Cc2c(Cl)nc3sccn23)=C(C)C1=O`, for which the TGI in assay [1] was determined as 27.7 µM; in assay [7], 17.5 µM; in assay [8], 18.5 µM; in assay [2], 25.8 µM; in [3] it was 41.3 µM; in [4], 21.7 µM. Further, the TGI in [9] was 28.5 µM; in assay [6], 25.4 µM; in assay [10], 27.2 µM.

With `COc1cc(C=O)cc(C=Nc2ccc(Br)cc2)c1O`, the TGI in assay [1] is > 100 µM; in assay [7] it was 21.1 µM; in [8], 40.8 µM; in assay [2] it was > 100 µM; in assay [3], > 100 µM; in assay [4] it was 7.83 µM. Besides, the values for the TGI in [9], in [6] and in assay [10] were 50.5 µM, 21.1 µM and > 100 µM, respectively.

In the case of `CCNC(=S)N/N=C(/C)c1cccc(/C(C)=N\NC(=S)NCC)n1`, the TGI in assay [1] is 46.2 µM; in assay [7], 5.52 µM; in assay [8], > 15.7 µM; in [2] it was > 94 µM; in [3], 13.1 µM; in assay [4] it was 73.8 µM. The TGI is > 100 µM in assay [9], > 38.8 µM in assay [6] and > 36.6 µM in assay [10].

Source of the values: PubChem BioAssay (NCI).
